According to ChEMBL document CHEMBL3621138, “Aminothiazoles: Hit to lead development to identify antileishmanial agents” (Eur J Med Chem, 2015):

Columns and labels:
[1] = Metabolic stability in CD1 mouse liver microsomes assessed as drug metabolism at 0.5 uM incubated for 30 mins in presence of NADPH; type: ADME; settings: read-out: Drug metabolism
[2] = Metabolic stability in golden Syrian hamster liver microsomes assessed as drug metabolism at 0.5 uM incubated for 30 mins in presence of NADPH; type: ADME, Mesocricetus auratus; settings: read-out: Drug metabolism
[3] = AUClast in Swiss Albino mouse at 25 mg/kg, po by LC-MS/MS method; type: ADME, organism-based; set-up: dose 25 mg/kg, route oral, time 0 - last; settings: in vivo
[4] = AUC (infinity) in Swiss Albino mouse at 1 mg/kg, iv by LC-MS/MS method; type: ADME, organism-based; set-up: dose 1 mg/kg, time infinity, route intravenous; settings: in vivo
[5] = Clearance in Swiss Albino mouse at 1 mg/kg, iv by LC-MS/MS method; type: ADME, organism-based; settings: in vivo, read-out: CLH
[6] = Tmax in Swiss Albino mouse at 25 mg/kg, po by LC-MS/MS method; type: ADME, organism-based; settings: in vivo
[7] = AUC (infinity) in Swiss Albino mouse at 25 mg/kg, po by LC-MS/MS method; type: ADME, organism-based; set-up: dose 25 mg/kg, time infinity, route oral; settings: in vivo
[8] = Oral bioavailability in Swiss Albino mouse at 1 mg/kg by LC-MS/MS method; type: ADME, organism-based; settings: in vivo
[9] = Cmax in Swiss Albino mouse at 25 mg/kg, po by LC-MS/MS method; type: ADME, organism-based; set-up: dose 25 mg/kg, route oral; settings: in vivo
[10] = AUClast in Swiss Albino mouse at 1 mg/kg, iv by LC-MS/MS method; type: ADME, organism-based; set-up: dose 1 mg/kg, route intravenous, time 0 - last; settings: in vivo
[11] = Terminal half-life in Swiss Albino mouse at 1 mg/kg, iv by LC-MS/MS method; type: ADME, organism-based; settings: in vivo, read-out: beta t1/2 (converted)
[12] = Cmax in Swiss Albino mouse at 1 mg/kg, iv by LC-MS/MS method; type: ADME, organism-based; set-up: dose 1 mg/kg, route intravenous; settings: in vivo
[13] = Volume of distribution at steady state in Swiss Albino mouse at 1 mg/kg, iv by LC-MS/MS method; type: ADME, organism-based; settings: in vivo, read-out: Vdss
[14] = Cmax in Swiss Albino mouse at 50 mg/kg, po by LC-MS/MS method; type: ADME, organism-based; set-up: dose 50 mg/kg, route oral; settings: in vivo
[15] = Tmax in Swiss Albino mouse at 50 mg/kg, po by LC-MS/MS method; type: ADME, organism-based; settings: in vivo
[16] = AUClast in Swiss Albino mouse at 50 mg/kg, po by LC-MS/MS method; type: ADME, organism-based; set-up: dose 50 mg/kg, time 0 - last, route oral; settings: in vivo

Row | metabolised at 0.5 h, 0.5 µM [1] [%] | metabolised at 0.5 h, 0.5 µM [2] [%] | SMILES | further results
1 | 100 | 100 | Cc1cccc(Nc2nc(-c3ccccn3)cs2)n1 | –
2 | 75 | 100 | COc1cccc(-c2csc(Nc3ccc(Cl)cn3)n2)n1 | –
3 | 100 | 100 | Cc1ccc(Nc2nc(-c3ccccn3)cs2)cc1C | –
4 | 100 | 100 | COc1ccc(Nc2nc(-c3ccccn3)cs2)cc1 | –
5 | 96 | 96 | COc1ccc(Nc2nc(-c3cccnc3)cs2)cc1 | –
6 | 99 | 81 | COc1ccc(Nc2nc(-c3ncccn3)cs2)cc1 | –
7 | 98 | 99 | CN(C)c1ccc(Nc2nc(-c3ccccn3)cs2)cc1 | –
8 | 99 | 100 | c1ccc(-c2csc(Nc3ccc4c(c3)OCCO4)n2)nc1 | –
9 | 100 | 100 | COc1ccc(Nc2nc(-c3ccccn3)cs2)cc1OC | –
10 | 100 | 99 | COc1ccc(Nc2nc(-c3ccccn3)cs2)nc1 | –
11 | 97 | 100 | COc1ccnc(-c2csc(Nc3ccc(Cl)cn3)n2)c1 | –
12 | 97 | 100 | COc1ccc(-c2csc(Nc3ccc(Cl)cn3)n2)nc1 | –
13 | 63 | 98 | FC(F)(F)c1ccc(-c2csc(Nc3ccc(Cl)cn3)n2)nc1 | –
14 | 62 | 10 | CCOc1ccc(-c2csc(Nc3ccc(Cl)cn3)n2)nc1 | AUC(0-t) [3]: 362 ng·h/mL; AUC(0-inf) [4]: 183 ng·h/mL; clearance [5]: 91 mL/min/kg; Tmax [6]: 15 min; AUC(0-inf) [7]: 377 ng·h/mL; bioavailability [8]: 8%; Cmax [9]: 167 ng/mL; AUC(0-t) [10]: 178 ng·h/mL; half-life [11]: 28.8 min; Cmax [12]: 885 ng/mL; Vd [13]: 1.99 L/kg
15 | 93 | 100 | Clc1ccc(Nc2nc(-c3ccccn3)c(Cl)s2)nc1 | –
16 | 90 | 100 | COc1ccnc(-c2nc(Nc3ccc(Cl)cn3)sc2Cl)c1 | –
17 | 92 | 100 | COc1ccc(-c2nc(Nc3ccc(Cl)cn3)sc2Cl)nc1 | –

Row | metabolised at 0.5 h, 0.5 µM [1] [%] | metabolised at 0.5 h, 0.5 µM [2] [%] | SMILES | further results
18 | 30 | 63 | FC(F)(F)c1ccc(-c2nc(Nc3ccc(Cl)cn3)sc2Cl)nc1 | –
19 | 56 | 87 | CCOc1ccc(-c2nc(Nc3ccc(Cl)cn3)sc2Cl)nc1 | –
20 | 95 | 99 | Clc1ccc(Nc2nc(-c3cccnn3)cs2)nc1 | –
21 | 70 | 99 | Clc1ccc(Nc2nc(-c3cccnn3)c(Cl)s2)nc1 | –
22 | 99 | 100 | Clc1ccc(Nc2nc(-c3ncccn3)cs2)nc1 | –
23 | 71 | 99 | Clc1ccc(Nc2nc(-c3ncccn3)c(Cl)s2)nc1 | –
24 | 99 | 99 | Clc1ccc(Nc2nc(-c3cnccn3)cs2)nc1 | –
25 | 47 | 78 | Clc1ccc(Nc2nc(-c3cnccn3)c(Cl)s2)nc1 | –
26 | 100 | 100 | Clc1ccc(Nc2nc(-n3cccn3)cs2)nc1 | –
27 | 100 | 100 | Cc1ccc(Nc2nc(-c3ccccn3)cs2)cc1 | Cmax [14]: 108 ng/mL; Tmax [15]: 15 min; AUC(0-t) [16]: 99.8 ng·h/mL
28 | 99 | 99 | Cc1ccnc(Nc2nc(-c3ccccn3)cs2)c1 | –
29 | 100 | 100 | c1ccc(Nc2nc(-c3ccccn3)cs2)nc1 | –
30 | 100 | 100 | Cc1cccnc1Nc1nc(-c2ccccn2)cs1 | –
31 | 100 | 100 | Cc1ccc(Nc2nc(-c3ccccn3)cs2)nc1 | –
32 | 100 | 100 | Clc1ccc(Nc2nc(-c3ccccn3)cs2)nc1 | –
33 | 83 | 98 | COc1ccc(Nc2nc(-c3ccncc3)cs2)cc1 | –
